Experimental data published in patent US20080255192A1, “Methods and Compositions for Selectin Inhibition” (Wyeth, priority 2007, published 2008).

biological target: T1, P-selectin/PSGL-1 interaction (Homo sapiens, UniProt P16109); test: Biacore P-Selectin/PSGL-1 Inhibition Assay (surface plasmon resonance); type: binding; conditions: 250 uM test compound, 500 nM P.LE, immobilized PSGL-1 19ek, 10% DMSO, pH 7.4
T1 construct: comprised of the lectin and epidermal growth factor-like (EGF) domains expressed in CHO cells; made in house; host or cells: CHO cells (P-LE)
T1 sequence (P16109 42-198): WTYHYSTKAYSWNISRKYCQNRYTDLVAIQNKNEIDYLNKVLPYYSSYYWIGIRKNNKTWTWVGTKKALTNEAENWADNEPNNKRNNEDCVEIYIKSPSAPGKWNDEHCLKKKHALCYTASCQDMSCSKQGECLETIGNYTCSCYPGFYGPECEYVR
Method in brief: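 Biotinylated monomeric human PSGL-1 "19ek" on streptavidin chip (600–700 RU); compounds preincubated 1 h, then mixed with 500 nM P-LE (lectin-EGF, CHO-expressed) at 250 or 500 μM compound, 10% DMSO, HEPES buffer with 1 mM CaCl2/MgCl2, pH 7.4. SPR at 25 °C; percent binding inhibition from double-referenced signals.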

Row | SMILES | inhibition at 250 µM
1 | CC(c1ccc(Cl)cc1)c1nc2c3c(ccc2c(C(=O)O)c1O)CCCC3 (stereo not drawn) [Compound 124, 2-(1-(4-chlorophenyl)ethyl)-3-hydroxy-7,8,9,10-tetrahydrobenzo[h]quinoline-4-carboxylic acid] | ≤ 10%
2 | CC(c1ccccc1)c1nc2c3c(ccc2c(C(=O)O)c1O)CCCC3 (stereo not drawn) [Compound 125, 3-Hydroxy-2-(1-phenylethyl)-7,8,9,10-tetrahydrobenzo[h]quinoline-4-carboxylic acid] | 90%
3 | CC(Cc1ccccc1)c1nc2c(C(F)(F)F)cccc2c(C(=O)O)c1O (stereo not drawn) [Compound 132, 3-Hydroxy-2-(1-Phenylpropan-2-yl)-8-(trifluoromethyl)quinoline-4-carboxylic acid] | 49%
4 | Cc1ccc2c(C(=O)O)c(O)c(C(C)Cc3ccccc3)nc2c1C (stereo not drawn) [Compound 134, 3-Hydroxy-7,8-dimethyl-2-(1-phenylpropan-2-yl)quinoline-4-carboxylic acid] | 49%
5 | Cc1ccc2c(C(=O)O)c(O)c(CC(C)c3ccccc3)nc2c1C (stereo not drawn) [Compound 137, 3-Hydroxy-7,8-dimethyl-2-(2-phenylpropyl)quinoline-4-carboxylic acid] | 31%
6 | O=C(O)c1c(OC(=O)N2CCOCC2)c(Cc2ccc(Cl)cc2)nc2c3c(ccc12)CCCC3 [Compound 138, 2-(4-Chlorobenzyl)-3-[(morpholin-4-ylcarbonyl)oxy]-7,8,9,10-tetrahydrobenzo[h]quinoline-4-carboxylic acid] | 16%

More lines, now with the values ahead:

Row | inhibition at 250 µM | SMILES
7 | 61% | CCC(c1ccccc1)c1nc2c(C(F)(F)F)cccc2c(C(=O)O)c1O (stereo not drawn) [Compound 126, 3-Hydroxy-2-(1-phenylpropyl)-8-(trifluoromethyl)quinoline-4-carboxylic acid]
8 | 65% | CCC(c1ccccc1)c1nc2c(C(C)C)cccc2c(C(=O)O)c1O (stereo not drawn) [Compound 127, 3-Hydroxy-8-isopropyl-2-(1-phenylpropyl)quinoline-4-carboxylic acid]
9 | 64% | CCC(c1ccccc1)c1nc2c(C)c(C)ccc2c(C(=O)O)c1O (stereo not drawn) [Compound 128, 3-Hydroxy-7,8-dimethyl-2-(1-phenylpropyl)quinoline-4-carboxylic acid]
10 | 60% | CC(C)C(c1ccccc1)c1nc2c(C(F)(F)F)cccc2c(C(=O)O)c1O (stereo not drawn) [Compound 129, 3-Hydroxy-2-(2-methyl-1-phenylpropyl)-8-(trifluoromethyl)quinoline-4-carboxylic acid]
11 | 40% | CC(C)c1cccc2c(C(=O)O)c(O)c(C(c3ccccc3)C(C)C)nc12 (stereo not drawn) [Compound 130, 3-Hydroxy-8-isopropyl-2-(2-methyl-1-phenylpropyl)quinoline-4-carboxylic acid]
12 | 90% | Cc1ccc2c(C(=O)O)c(O)c(C(c3ccccc3)C(C)C)nc2c1C (stereo not drawn) [Compound 131, 3-Hydroxy-7,8-dimethyl-2-(2-methyl-1-phenylpropyl)quinoline-4-carboxylic acid]
13 | 64% | CC(C)c1cccc2c(C(=O)O)c(O)c(C(C)Cc3ccccc3)nc12 (stereo not drawn) [Compound 133, 3-Hydroxy-8-isopropyl-2-(1-phenylpropan-2-yl)quinoline-4-carboxylic acid]
14 | 46% | CC(Cc1nc2c(C(F)(F)F)cccc2c(C(=O)O)c1O)c1ccccc1 (stereo not drawn) [Compound 135, 3-Hydroxy-2-(2-phenylpropyl)-8-(trifluoromethyl)quinoline-4-carboxylic acid]
15 | 64% | CC(C)c1cccc2c(C(=O)O)c(O)c(CC(C)c3ccccc3)nc12 (stereo not drawn) [Compound 136, 3-Hydroxy-8-isopropyl-2-(2-phenylpropyl)quinoline-4-carboxylic acid]
